Columns and labels:
[1] = test system: highly emetogenic chemotherapy (HEC)-induced nausea and vomiting; assay: Phase 2 clinical efficacy study, netupitant + palonosetron + dexamethasone; assay type: in vivo, human; conditions: MFAS; for No Emesis, Overall: percent of patients: 0-120 h; for CR, Overall Phase, 0-120 h: Percent of Patients: HEC (cisplatin) patients
Text: A phase 2 trial evaluated three single doses of netupitant combined with palonosetron and dexamethasone compared to palonosetron alone and dexamethasone to obtain dose ranging information for netupitant used with oral palonosetron in the CINV patient population.
The objective of the study was to compare the efficacy and safety of three single oral doses of netupitant combined with oral palonosetron and given with dexamethasone, versus oral palonosetron-alone given with dexamethasone (without netupitant) for the prevention of highly emetogenic chemotherapy (HEC)-induced nausea and vomiting. The FDA-approved oral aprepitant regimen given with IV ondansetron and dexamethasone was included in the study as an active comparator for exploratory purposes. The FDA-approved oral palonosetron 0.5 mg. dose was used in each applicable treatment group in this study.
This was a multicenter, randomized, double-blind, double-dummy, parallel group, stratified study. Eligible patients were randomized (stratified by gender) to one of the following treatment groups: • Group 1—0.5 mg. oral palonosetron on Day 1 (with an oral dexamethasone standard regimen: 20 mg. on Day 1 and 8 mg. BID from Day 2 through Day 4) • Group 2—100 mg. oral netupitant plus 0.5 mg. oral palonosetron on Day 1 (with an oral dexamethasone adjusted regimen*: 12 mg. on Day 1 and 8 mg. daily from Day 2 through Day 4) • Group 3—200 mg. oral netupitant plus 0.5 mg. oral palonosetron on Day 1 (with an oral dexamethasone adjusted regimen*: 12 mg. on Day 1 and 8 mg. daily from Day 2 to Day 4) • Group 4—300 mg. oral netupitant plus 0.5 mg. oral palonosetron on Day 1 (with dexamethasone adjusted regimen*: 12 mg. on Day 1 and 8 mg. daily from Day 2 to Day 4) • Group 5—125 mg. oral aprepitant plus IV ondansetron 32 mg. (both on Day 1) then 80 mg. oral aprepitant on Day 2 and Day 3, (all with an oral dexamethasone adjusted regimen: 12 mg. on Day 1 and 8 mg. daily from Day 2 through Day 4)
The primary efficacy endpoint was the complete response rate (defined as no emetic episodes, no rescue medication) within 120 hours after the start of the highly emetogenic chemotherapy administration. Secondary efficacy endpoints were: • Complete response for the 0-24 hour interval (acute phase); and for the 25-120 hour interval (delayed phase); • Complete protection (defined as no emesis, no rescue therapy, no significant nausea); Total control (defined as no emesis, no rescue therapy and no nausea); No nausea (maximum VAS<5 mm); No significant nausea (maximum VAS<25 mm); No rescue medication; No emesis. These endpoints were evaluated for the 0-120 hour interval (overall), acute and delayed phase. • Time to first emetic episode, Time to first rescue medication, Time to treatment failure (based on time to the first emetic episode or time to the first rescue medication, whichever occurs first); • Severity of nausea for the overall, acute and delayed phase; ● Patient global satisfaction with anti-emetic therapy by means of VAS for each 24 hour interval.

[2] = target: T1, NK1 receptors in human brain (Homo sapiens, UniProt P25103); assay: Netupitant PET receptor occupancy study (11C-GR205171 tracer); assay type: in vivo; conditions: for mean NK1-RO: 96 hours post dose
T1 construct: 6 healthy male volunteers (2 per dose level) receiving single doses of netupitant; from tissue; host or cells: brain of healthy male human volunteers, in vivo
Protocol: This was a randomized, open-label, positron emission tomography (PET) study using 11C-GR205171 as tracer in 6 healthy male volunteers (2 per dose level) receiving single doses of netupitant (100, 300 or 450 mg) to investigate the degree of occupancy of NK1 receptors in human brain, and to determine the relationship between plasma concentration of netupitant and NK1 receptor occupancy (RO).

[3] = Pharmacokinetics of combined dosage form: randomized, open, 3-way crossover study; assay type: in vivo; conditions: human, plasma netupitant, oral netupitant 450 mg single dose, fasting
Protocol: The effects of palonosetron on the pharmacokinetics (PK) of netupitant and the effects of netupitant on the PK of palonosetron were examined in healthy volunteers. A randomized, open, 3-way crossover study was conducted. Each subject participated in 3 treatment periods, each lasting approximately 12 days (Day −1 to Day 11). The treatment periods were separated by wash-out periods of no less than 14 days (between Day 1 of any 2 consecutive treatment periods). Treatment A: oral netupitant 450 mg. administered as single dose of three 150 mg. capsules. Treatment B: oral palonosetron 0.75 mg. and oral netupitant 450 mg. administered simultaneously as three capsules of 150 mg. netupitant followed by 1 capsule of 0.75 mg. palonosetron. Treatment C: oral palonosetron 0.75 mg. administered as single dose as one 0.75 mg. capsule. Doses were administered under fasting conditions. Subjects fasted over-night for approximately 10 hours. Water, however, was permitted up to 1 hour pre-dose. Food intake was permitted 4 hours post-dose, and water was allowed ad libitum 1 hour post-dose. Doses were administered with the subject in an upright position. The subjects remained in an upright position for 4 hours post-dose. The capsules were swallowed whole with 250 mL of room-temperature tap water. Repeated PK blood sampling (for netupitant and/or palonosetron) was performed. The primary PK variables assessed for netupitant and palonosetron were the maximum plasma concentration observed (Cmax), the area under the plasma concentration versus time curve from time zero to the last quantifiable sampling time point (t) (AUC0-t), and the area under the plasma concentration versus time curve from time zero to infinity (AUC0-inf). The secondary PK variables assessed were the terminal elimination half-life (t1/2, z), and the time at which the maximum plasma concentration was observed (tmax). Results are depicted in below Tables 3 and 4, as well as FIGS. 2 and 3.

[4] = test system: nausea following moderately or highly emetogenic chemotherapy; conditions: humans, compared to a 5-HT3 antagonist alone; cited from earlier work
[5] = test system: nausea, moderately emetogenic chemotherapy; conditions: cited from earlier work
[6] = netupitant 100 mg + palonosetron 0.5 mg oral Day 1, with dexamethasone
[7] = netupitant 200 mg + palonosetron 0.5 mg oral Day 1, with dexamethasone
[8] = netupitant 300 mg + palonosetron 0.5 mg oral Day 1, with dexamethasone

T1 sequence (P25103 whole entry): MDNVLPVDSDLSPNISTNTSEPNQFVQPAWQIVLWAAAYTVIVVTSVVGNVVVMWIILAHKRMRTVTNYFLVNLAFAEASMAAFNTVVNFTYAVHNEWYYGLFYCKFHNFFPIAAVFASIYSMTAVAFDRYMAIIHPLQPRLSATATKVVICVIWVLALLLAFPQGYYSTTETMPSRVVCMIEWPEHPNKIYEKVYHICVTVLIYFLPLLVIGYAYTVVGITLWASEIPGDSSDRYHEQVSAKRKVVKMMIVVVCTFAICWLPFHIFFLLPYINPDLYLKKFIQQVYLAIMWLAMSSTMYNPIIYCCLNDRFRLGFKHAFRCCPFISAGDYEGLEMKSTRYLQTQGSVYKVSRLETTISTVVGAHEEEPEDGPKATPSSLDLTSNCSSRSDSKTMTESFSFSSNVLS

Cc1ccccc1-c1cc(N2CCN(C)CC2)ncc1N(C)C(=O)C(C)(C)c1cc(C(F)(F)F)cc(C(F)(F)F)c1 [Netupitant, 2-[3,5-bis(trifluoromethyl)phenyl]-N,2-dimethyl-N-[4-(2-methylphenyl)-6-(4-methylpiperazin-1-yl)pyridin-3-yl]propanamide]
No Emesis, Overall: percent of patients [1, 6]: 87.4% | No Emesis, Overall: percent of patients [1, 7]: 87.6% | No Emesis, Overall: percent of patients [1, 8]: 91.1% | CR, Overall Phase, 0-120 h: Percent of Patients [1, 6]: 87.4% | CR, Overall Phase, 0-120 h: Percent of Patients [1, 7]: 87.6% | CR, Overall Phase, 0-120 h: Percent of Patients [1, 8]: 89.6% | mean NK1-RO ([2]; 100 mg dose group, 4 of 6 regions): over 70% | mean NK1-RO ([2]; 450 mg dose group, 5 of 6 regions): ≥ 80% | NK1 receptor occupancy (NK1-RO) ([2]; 6 hours post dose, striatum, occipital cortex, frontal cortex and anterior cingulate, reached in 3 of 6 subjects (1 at 300 mg, 2 at 450 mg single oral dose)): ≥ 90% | Cmax ([3]; mean (SD)): 650 ng/mL | AUC(0-t) ([3]; mean (SD), read-out: Netupitant AUC0-t): 22800 ng·h/mL | AUC ([3]; mean (SD), read-out: Netupitant AUCo-inf): 25900 ng·h/mL | half-life ([3]; median (range), read-out: Netupitant t1/2, z (converted)): 71.8 h | Tmax ([3]; median (range), read-out: Netupitant tmax): 4.5 h

C[C@@H](O[C@H]1OCCN(Cc2n[nH]c(=O)[nH]2)[C@H]1c1ccc(F)cc1)c1cc(C(F)(F)F)cc(C(F)(F)F)c1 [aprepitant]
effect on incidence or severity of nausea [4]: unable to induce a significant reduction in the incidence or severity of nausea

CC(=O)N1CCN([C@H]2CCN(C(=O)N(C)[C@H](C)c3cc(C(F)(F)F)cc(C(F)(F)F)c3)[C@@H](c3ccc(F)cc3C)C2)CC1 [casopitant, (2R,4S)-4-(4-acetytlpiperazin-1-yl)-N-{(1R)-1-[3,5-bis(trifluoromethyl)phenyl]ethyl}-2-(4-fluoro-2-methylphenyl)-N-methylpiperidine-1-carboxamide]
effect against nausea ([5]; administered in response to moderately emetogenic chemotherapy): no statistically significant effect against nausea | side effect ([5]; moderately emetogenic chemotherapy): induced nausea as a side effect

— patent publication US8951969B2, “Compositions and methods for treating centrally mediated nausea and vomiting” (Helsinn Healthcare S.A., priority 2009, dated 2015)
